These results are taken from US20240101563A1, “NOVEL COMPOUNDS” (AC Immune SA, priority 2022, published 2024).

Each structure is given as a SMILES string. Structures can show the parent of a compound that is named as a salt. Where two headings read alike, the source gives them in different places.

The assay concerns NLRP3 inflammasome pathway. Briefly: NLRP3 inflammasome pathway activation assay, MSU stimulation, IL-1β HTRF. Type of assay: cell-based. Particulars: Table 7, PMA-differentiated, LPS-primed cells, MSU 200 μg/mL for 3 h, IL-1β release, read-out: IC50 Human monocyte-like cells MSU. On the procedure: The following assays were used to determine the inhibitory activity of test compounds on the NLRP3 inflammasome pathway using common stimuli Nigericin (Invivogen) or monosodium urate crystals (MSU) (Invivogen).
Human monocyte-like cells were cultured in RPMI-1640 Glutamax medium supplemented with 10% heat inactivated FBS (Fetal Bovine Serum) and 50 U/mL penicillin-streptomycin (Life Technologies).
Human monocyte-like cells were seeded at 25000 per well in a 384-well plate and were differentiated overnight into macrophages with 10 ng/mL PMA (Phorbol Myristate Acetate). The following day, medium containing 10 ng/mL LPS (Lipopolysaccharide) was added. After 3 hours of LPS priming, concentrations of test compound in the range from […] were added 30 min prior to NLRP3 inflammasome pathway stimulation with Nigericin 3.75 μM or MSU 200 μg/mL for 3 h.
For IL-1p quantification, supernatants were analyzed using HTRF kit according to the manufacturer's instructions (Cisbio 62HIL1BPEH). Briefly, in a 384-well ProxiPlate™ microplate, 8 μl of sample was mixed, with 5 μl of Anti-IL1β Cryptate antibody (40×) and Anti-IL1β XL antibody (40×). Then, incubated overnight at RT. Reading was done using an EnVision Reader (PerkinElmer).
IC50 (concentration corresponding to 50% inhibition) were determined using GraphPad Prism 9.
For orientation: TR-FRET usually uses a lanthanide donor and a delayed reading to cut background.

What is called IC50 is the concentration at which inhibition is half-maximal. Consider `COc1nc2nc(-c3c(C)cc(C(F)(F)F)cc3O)n(C)c2cc1CO` [Example 52, 2-(6-(hydroxymethyl)-5-methoxy-1-methyl-1H-imidazo[4,5-b]pyridin-2-yl)-3-methyl-5-(trifluoromethyl)phenol], for which the IC50 (Homo sapiens, 3 h) is below 100 nM. On the same count and under the same terms, the same measure for `Cc1cc(Cl)cc(O)c1-c1nc2nc(N3CCC(O)C3)cnc2n1C` (single isomer, unassigned) [Example 85A]: below 100 nM.

As for `COc1cnc2c(n1)nc(-c1c(C)cc(C(F)(F)F)cc1O)n2C` [Example 56, 2-(5-methoxy-1-methyl-1H-imidazo[4,5-b]pyrazin-2-yl)-3-methyl-5-(trifluoromethyl)phenol], where the note is “Homo sapiens, 3 h”, the IC50 was below 100 nM. As for `Cc1cc(Cl)cc(O)c1-c1nc2nc(N3CCOCC3)cnc2[nH]1` [Example 73, 5-chloro-3-methyl-2-(5-morpholino-1H-imidazo[4,5-b]pyrazin-2-yl)phenol], the IC50 (Homo sapiens, 3 h) was in the range of 100 to 1000 nM. Consider `COc1ccc2cn(-c3ccc(C(F)(F)F)cc3O)nc2n1` [Example 42], for which, where the note is “Homo sapiens, 3 h”, the IC50 fell in the range of 100 to 1000 nM. Same read-out and setting: the same measure for `Cc1cc(Cl)cc(O)c1-c1nc2nc(O[C@@H]3CCN(C)C3)cnc2n1C` [Example 58, (R)-5-chloro-3-methyl-2-(1-methyl-5-((1-methylpyrrolidin-3-yl)oxy)-1H-imidazo[4,5-b]pyrazin-2-yl)phenol formate Salt]: below 100 nM. Turning to `Cn1c(-c2ccc(C(F)(F)F)cc2O)nc2nc(O[C@H]3CC[C@H](O)C3)ccc21` (single isomer, unassigned) [Example 37B, trans-2-(5-((3-hydroxycyclopentyl)oxy)-1-methyl-1H-imidazo[4,5-b]pyridin-2-yl)-5-(trifluoromethyl)phenol], the IC50 lay within 100 to 1000 nM. `COc1nc2nc(-c3c(C)cc(Cl)cc3O)n(C)c2cc1CO` [Example 70, 5-chloro-2-[6-(hydroxymethyl)-5-methoxy-1-methyl-imidazo[4,5-b]pyridin-2-yl]-3-methyl-Phenol]: the IC50 (Homo sapiens, 3 h) was below 100 nM. The same measure, in the same setting: the same measure for `Cc1cc(C(F)(F)F)cc(O)c1-c1nc2nc(N[C@@H]3CCN(C)C3)ccc2n1C(C)C` [Example 10B, (R)-2-(1-isopropyl-5-((1-methylpyrrolidin-3-yl)amino)-1H-imidazo[4,5-b]pyridin-2-yl)-3-methyl-5-(trifluoromethyl)phenol]: below 100 nM; for `Cc1cc(C(F)(F)F)cc(O)c1-c1nc2nc(N3CCOCC3)ccc2n1C` [Example 79, 3-methyl-2-(1-methyl-5-morpholino-imidazo[4,5-b]pyridin-2-yl)-5-(trifluoromethyl)phenol]: below 100 nM; for `Cc1cc(Cl)cc(O)c1-c1nc2nc(N3CCN(C)CC3)cnc2n1C` [Example 69, 5-chloro-3-methyl-2-(1-methyl-5-(4-methylpiperazin-1-yl)-1H-imidazo[4,5-b]pyrazin-2-yl)phenol]: 100 to 1000 nM. The same measure, in the same setting: under `COc1ccc2c(n1)nc(-c1c(C)cc(C(F)(F)F)cc1O)n2C(C)C` [Example 34, 2-(1-isopropyl-5-methoxy-1H-imidazo[4,5-b]pyridin-2-yl)-3-methyl-5-(trifluoromethyl)phenol] stands 100 to 1000 nM; under `Cc1cc(C(F)(F)F)cc(O)c1-c1nc2nc(OC3CCN(C)C3)ncc2n1C` (racemic) [Example 55, 3-methyl-2-(7-methyl-2-((1-methylpyrrolidin-3-yl)oxy)-7H-purin-8-yl)-5-(trifluoromethyl)phenol], 100 to 1000 nM; under `Cc1cc(C(F)(F)F)cc(O)c1-c1nc2nc(OCCO)ccc2n1C(C)C` [Example 33, 2-(5-(2-hydroxyethoxy)-1-isopropyl-1H-imidazo[4,5-b]pyridin-2-yl)-3-methyl-5-(trifluoromethyl)phenol], 100 to 1000 nM. Still for that read-out and setting: the same measure for `COc1nc2nc(-c3c(C)cc(C(F)(F)F)cc3O)n(C)c2cc1C(C)(C)O` [Example 57, 2-[6-(1-hydroxy-1-methyl-ethyl)-5-methoxy-1-methyl-imidazo[4,5-b]pyridin-2-yl]-3-methyl-5-(trifluoromethyl)phenol]: 100 to 1000 nM; for `CN1CC[C@@H](Nc2ccc3c(n2)nc(-c2ccc(C(F)(F)F)cc2O)n3C)C1` (single isomer, unassigned) [Example 19, 2-(1-methyl-5-((1-methylpyrrolidin-3-yl)amino)-1H-imidazo[4,5-b]pyridin-2-yl)-5-(trifluoromethyl)phenol]: below 100 nM. Take `Cc1cc(Cl)cc(O)c1-c1nc2nc(NC3CN(C)CC3(F)F)ccc2n1C` (stereo not drawn) [Example 62, 5-chloro-2-(5-((4,4-difluoro-1-methylpyrrolidin-3-yl)amino)-1-methyl-1H-imidazo[4,5-b]pyridin-2-yl)-3-methylphenol HCl Salt]: the IC50 (Homo sapiens, 3 h) was in the range of 100 to 1000 nM. On the same count and under the same terms, the same measure for `Cc1cc(C(F)(F)F)cc(O)c1-c1nc2nc(N3CCOCC3)cnc2n1C` [Example 61, 3-methyl-2-(1-methyl-5-morpholino-1H-imidazo[4,5-b]pyrazin-2-yl)-5-(trifluoromethyl)phenol]: below 100 nM; for `Cn1c(-c2ccc(C(F)(F)F)cc2O)nc2nc(NC3COC3)ccc21` [Example 7, 2-(1-methyl-5-(oxetan-3-ylamino)-1H-imidazo[4,5-b]pyridin-2-yl)-5-(trifluoromethyl)phenol]: 100 to 1000 nM. On the same count and under the same terms, the same measure for `Cc1cc(Cl)cc(O)c1-c1nc2nc(N(C)[C@@H]3CCN(C)C3)cnc2n1C` [Example 81, 5-chloro-3-methyl-2-[1-methyl-5-[methyl-[(3R)-1-methylpyrrolidin-3-yl]amino]imidazo-[4,5-b]pyrazin-2-yl]phenol]: below 100 nM; for `Cc1cc(Cl)cc(O)c1-c1nc2nc(OCC(F)(F)F)ccc2n1C` [Example 38, 5-chloro-3-methyl-2-(1-methyl-5-(2,2,2-trifluoroethoxy)-1H-imidazo[45-b]pyridin-2-yl)phenol]: 100 to 1000 nM; for `Cc1cc(Cl)cc(O)c1-c1nc2nc(NC3CCC(F)(F)C3)ccc2n1C` (racemic) [Example 11, 5-chloro-2-(5-((3,3-difluorocyclopentyl)amino)-1-methyl-1H-imidazo[4,5-b]pyridin-2-yl)-3-methylphenol]: 100 to 1000 nM. Consider `Cc1cc(C(F)(F)F)cc(O)c1-c1nc2nc(NCC(C)(C)O)ccc2n1C` [Example 6, 2-(5-((2-hydroxy-2-methylpropyl)amino)-1-methyl-1H-imidazo[4,5-b]pyridin-2-yl)-3-methyl-5-(trifluoromethyl)phenol], for which the concentration for half-maximal inhibition (IC50) (Homo sapiens, 3 h) is above 1000 nM. The same measure, in the same setting: under `Cc1cc(Cl)cc(O)c1-c1nc2nc(N3CCOCC3)cnc2n1C` [Example 66, 5-chloro-3-methyl-2-(1-methyl-5-morpholino-imidazo[4,5-b]pyrazin-2-yl)phenol] stands below 100 nM; under `Cc1cc(C(F)(F)F)cc(O)c1-c1nc2nc(N[C@@H]3CCC[C@@H](O)C3)ccc2n1C` (single isomer, unassigned) [Example 21, 2-(5-((3-hydroxycyclohexyl)amino)-1-methyl-1H-imidazo[4,5-b]pyridin-2-yl)-3-methyl-5-(trifluoromethyl)phenol], 100 to 1000 nM; under `Cc1cc(C(F)(F)F)cc(O)c1-c1nc2nc(N3CC(N(C)C)C3)cnc2n1C` [Example 71, 2-(5-(3-(dimethylamino)azetidin-1-yl)-1-methyl-1H-imidazo[4,5-b]pyrazin-2-yl)-3-methyl-5-(trifluoromethyl)phenol], 100 to 1000 nM.

For `Cc1cc(C(F)(F)F)cc(O)c1-c1nc2nc(O[C@@H]3CCN(C)C3)ccc2n1C` [Example 28, (R)-3-methyl-2-(1-methyl-5-((1-methylpyrrolidin-3-yl)oxy)-1H-imidazo[4,5-b]pyridin-2-yl)-5-(trifluoromethyl)phenol], the IC50 (Homo sapiens, 3 h) is below 100 nM. As for `Cc1cc(C(F)(F)F)cc(O)c1-c1nc2nc(N3CCC(O)CC3)cnc2n1C` [Example 63, 1-(2-(2-hydroxy-6-methyl-4-(trifluoromethyl)phenyl)-1-methyl-1H-imidazo[4,5-b]pyrazin-5-yl)piperidin-4-ol], the IC50 (Homo sapiens, 3 h) was below 100 nM. In the case of `Cc1cc(Cl)cc(O)c1-c1nc2nc(N3CCC(C)(O)C3)cnc2n1C` (single isomer, unassigned) [Example 86B], the IC50 was below 100 nM. Regarding `COc1nc2nc(-c3ccc(C(F)(F)F)cc3O)n(C)c2cc1CO` [Example 51, 2-(6-(hydroxymethyl)-5-methoxy-1-methyl-1H-imidazo[4,5-b]pyridin-2-yl)-5-(trifluoromethyl)phenol], for the setting “Homo sapiens, 3 h”, the IC50 was below 100 nM. Regarding `Cc1cc(Cl)cc(O)c1-c1nc2nc(N3CC[C@@H]4CCN(C)C[C@@H]43)cnc2n1C` (relative stereo) [Example 77B, 5-chloro-3-methyl-2-[1-methyl-5-[rel-(3aS,7aR)-6-methyl-3,3a,4,5,7,7a-hexahydro-2H-pyrrolo[2,3-c]pyridin-1-yl]imidazo[4,5-b]pyrazin-2-yl]phenol], the 50% inhibitory concentration (IC50) is below 100 nM. As for `Cc1cc(C(F)(F)F)cc(O)c1-c1nc2nc(N3CCN(C)CC3)cnc2n1C` [Example 68, 3-methyl-2-(1-methyl-5-(4-methylpiperazin-1-yl)-1H-imidazo[4,5-b]pyrazin-2-yl)-5-(trifluoromethyl)phenol], the IC50 (Homo sapiens, 3 h) is 100 to 1000 nM. On the same count and under the same terms, the same measure for `COc1cnc2c(n1)nc(-c1c(C)cc(Cl)cc1O)n2C` [Example 59, 5-chloro-2-(5-methoxy-1-methyl-imidazo[4,5-b]pyrazin-2-yl)-3-methyl-phenol formate Salt]: below 100 nM.
